In patent EP2423181A1, “Multitarget substituted biphenyl diol derivatives” (PROUS INSTITUTE FOR BIOMEDICAL RESEARCH S.A., priority 2010, dated 2012):
Where a name gives a salt, the structure may show the parent alone. Read-outs that look alike come from different tables or passages of the source.

Experiments:
[1] = log D octanol/water distribution coefficient; assay type: physicochemical
From the text: Lipophilicity has been correlated to various drug properties, affecting permeability, absorption, distribution, plasma protein binding, metabolism, elimination, and toxicity. In contrast to honokiol and magnolol, compounds claimed in the invention, and more particularly those wherein the nitrogen atom in the group -O-CH(phenyl)-(CH2)p-NH-R^3 is protonated and the compound further comprises a pharmaceutically acceptable counter-anion present an optimal log Doctanol/water (range 0-3), indicating good aqueous solubility, permeability, oral absorption, and blood-brain barrier penetration. Experimental studies in murine models have confirmed the results.
Absorption, distribution and metabolism studies in vitro with selected examples were performed in order to determine pharmacokinetic parameters such as permeability (or absorption constant), intrinsic clearance (or metabolic clearance), and bioavailability. Physicochemical properties such as water solubility, pKa, log P, and log Doctanol/water, and in vitro experimental studies such as permeability in Caco2 cells, and protein binding in the mouse, stability in murine microsomes, chemical stability at different pH and stability in plasma were evaluated for the pharmacokinetic prediction in mice.

EGFR = molecular target: T1, EGFR (Homo sapiens, UniProt P00533); experiment: EGF receptor tyrosine-protein kinase inhibition (ELISA of Poly[Glu:Tyr-P]); assay type: biochemical
T1 construct: EGF receptor tyrosin-protein kinase activity was assessed in human A431 cells; endogenous in cells; host or cells: human A431 cells
T1 sequence (P00533 25-1210): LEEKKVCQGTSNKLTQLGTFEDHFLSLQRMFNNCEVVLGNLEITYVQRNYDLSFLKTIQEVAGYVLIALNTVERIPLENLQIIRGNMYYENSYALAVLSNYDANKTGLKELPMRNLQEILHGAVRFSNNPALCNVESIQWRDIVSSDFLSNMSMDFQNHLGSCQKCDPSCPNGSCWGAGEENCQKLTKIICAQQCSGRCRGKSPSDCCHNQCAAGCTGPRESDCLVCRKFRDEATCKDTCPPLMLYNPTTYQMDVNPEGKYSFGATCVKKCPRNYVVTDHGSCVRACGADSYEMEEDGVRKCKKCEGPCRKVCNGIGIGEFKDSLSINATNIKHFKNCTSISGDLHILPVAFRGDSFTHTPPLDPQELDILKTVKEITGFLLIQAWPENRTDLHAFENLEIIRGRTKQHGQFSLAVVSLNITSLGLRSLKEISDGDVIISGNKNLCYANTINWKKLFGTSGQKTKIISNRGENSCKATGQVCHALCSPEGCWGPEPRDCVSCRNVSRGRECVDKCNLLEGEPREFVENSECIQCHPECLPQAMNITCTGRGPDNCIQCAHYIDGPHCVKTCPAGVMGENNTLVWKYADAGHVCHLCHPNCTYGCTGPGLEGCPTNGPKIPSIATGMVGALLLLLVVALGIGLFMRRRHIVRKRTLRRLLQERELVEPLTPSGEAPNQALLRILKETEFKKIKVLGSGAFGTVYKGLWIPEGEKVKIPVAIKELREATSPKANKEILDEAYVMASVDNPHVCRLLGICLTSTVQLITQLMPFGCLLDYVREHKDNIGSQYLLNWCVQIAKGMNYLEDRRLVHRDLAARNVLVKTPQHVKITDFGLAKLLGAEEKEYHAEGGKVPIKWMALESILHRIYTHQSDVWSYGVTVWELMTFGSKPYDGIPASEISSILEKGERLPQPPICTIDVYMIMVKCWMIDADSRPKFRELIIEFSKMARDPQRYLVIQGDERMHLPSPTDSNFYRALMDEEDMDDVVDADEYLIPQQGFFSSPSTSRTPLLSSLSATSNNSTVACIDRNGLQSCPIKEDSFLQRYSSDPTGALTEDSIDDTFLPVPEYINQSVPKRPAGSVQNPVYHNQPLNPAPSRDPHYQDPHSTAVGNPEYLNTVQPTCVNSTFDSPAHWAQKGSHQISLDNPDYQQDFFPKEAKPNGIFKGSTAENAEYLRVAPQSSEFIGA
Protocol: EGF receptor tyrosin-protein kinase activity was assessed in human A431 cells using as a substrate Poly(Glu:Tyr) at 10 µg/ml with a preincubation and incubation times of 15 and 60 min, respectively, at 25°C respectively in 50 mM HEPES pH 7.4, 20 mM MgCl2 and 0.2 mM Na3VO4. An ELISA quantification method of Poly[Glu:Tyr-P] was employed (Cheng, K. and Koland, J.G. J Biol Chem, 1996, 271, 311-318). Table 5. Inhibition of EGFR at 10 µM

Akt3 (PRKBG) = molecular target: T2, Akt3 (PRKBG) (Homo sapiens, UniProt Q9Y243); experiment: Akt3 kinase inhibition ([32P]Crosstide KK); assay type: biochemical
T2 construct: host or cells: insect cells
T2 sequence (Q9Y243 whole entry): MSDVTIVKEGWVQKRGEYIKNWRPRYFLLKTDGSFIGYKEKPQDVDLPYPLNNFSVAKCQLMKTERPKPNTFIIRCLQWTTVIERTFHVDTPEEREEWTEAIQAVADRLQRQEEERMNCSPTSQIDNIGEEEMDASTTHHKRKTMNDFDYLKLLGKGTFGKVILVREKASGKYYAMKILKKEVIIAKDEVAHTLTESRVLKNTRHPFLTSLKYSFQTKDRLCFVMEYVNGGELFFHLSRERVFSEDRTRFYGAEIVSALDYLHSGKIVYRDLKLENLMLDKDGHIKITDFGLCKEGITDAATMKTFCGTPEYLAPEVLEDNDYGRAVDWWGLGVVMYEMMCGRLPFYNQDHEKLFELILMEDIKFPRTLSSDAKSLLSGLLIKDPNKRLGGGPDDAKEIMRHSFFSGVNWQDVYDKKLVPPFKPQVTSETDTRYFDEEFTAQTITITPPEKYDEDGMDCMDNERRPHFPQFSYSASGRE
Protocol: Akt3 activity was obtained in human recombinant insect cells using Crosstide KK 10 µM as a substrate. The incubation buffer was 20 mM MOPS, pH 7.2, 25 mM β-Glycerophosphate, 1 mM DTT, 5 mM EGTA, 20 mM MgCl2, 1 mM Na3VO4 and the preincubation and incubation times 15 and 30 min, respectively, at 37°C. The quantification of inhibition was assessed by the measure of [^32P]Crosstide KK (Laine, J. Et al. J Biol Chem 2002, 277(5), 3743-3751). Table 6. Inhibition of Akt3 (PRKBG) at 10 µM

[2] = molecular target: T3, CDK2/CCNA2 (cdk2/cyclin A) (Homo sapiens, UniProt P24941); experiment: CDK2/cyclin A kinase inhibition ([32P]Histone H1); assay type: biochemical
T3 construct: host or cells: Sf21 insect cells
Protocol: Human recombinant Sf21 cells were employed to assess the activity on protein serine threonine kinase CDK2/CCNA2 (cdk2/cyclin A). Histone H1 at 100 µg/ml was used as a substrate and the activity was measured by quantification of [^32P]Histone H1 after preincubation and incubation times of 15 and 30 min, respectively, at 37°C in 20 mM MOPS, pH 7.2, 5 mM EGTA, 20 mM MgCl2, 1 mM DTT, 25 mM β-Glycerophosphate, 1 mM Na3V04 incubation buffer (Gray, N. et al. Curr Med Chem, 1999, 6(9):859-875). Table 7. Inhibition of CDK2 at 10 µM

tumor brain U-87 MG = experiment: Tumor cell proliferation assay (alamarBlue); assay type: cell-based; conditions: Homo sapiens; tumor brain U-87 MG; read-out: IC50
In short: (§1)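 Viable-cell metabolic activity was measured by alamarBlue reduction from the oxidized, non-fluorescent blue form to the reduced, fluorescent red form. Test substances were applied to human or murine tumor cell lines at 0.01 to 100 µM to assess effects on proliferation.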

tumor breast MCF-7 = experiment: Tumor cell proliferation assay (alamarBlue); assay type: cell-based; conditions: Homo sapiens, MCF7
In short: as §1

tumor breast MDA-MB-231 = experiment: Tumor cell proliferation assay (alamarBlue); assay type: cell-based; conditions: Homo sapiens
In short: as §1

tumor breast T-47D = experiment: Tumor cell proliferation assay (alamarBlue); assay type: cell-based; conditions: Homo sapiens, T47D
In short: as §1

tumor colon HCT-116 = experiment: Tumor cell proliferation assay (alamarBlue); assay type: cell-based; conditions: Homo sapiens; tumor colon HCT-116; read-out: IC50
In short: as §1

tumor liver Hep 3B = experiment: Tumor cell proliferation assay (alamarBlue); assay type: cell-based; conditions: Homo sapiens, Hep3B
In short: as §1

tumor ovary OVCAR-3 = experiment: Tumor cell proliferation assay (alamarBlue); assay type: cell-based; conditions: Homo sapiens; tumor ovary OVCAR-3; read-out: IC50
In short: as §1

COX-1 = molecular target: T4, COX-1 (Homo sapiens, UniProt P23219); experiment: COX-1 inhibition in human platelets (PGE2 enzyme immunoassay); assay type: biochemical; conditions: read-out: % COX-1 Inhibition
T4 construct: endogenous in cells; host or cells: human platelets
T4 sequence (P23219 24-599): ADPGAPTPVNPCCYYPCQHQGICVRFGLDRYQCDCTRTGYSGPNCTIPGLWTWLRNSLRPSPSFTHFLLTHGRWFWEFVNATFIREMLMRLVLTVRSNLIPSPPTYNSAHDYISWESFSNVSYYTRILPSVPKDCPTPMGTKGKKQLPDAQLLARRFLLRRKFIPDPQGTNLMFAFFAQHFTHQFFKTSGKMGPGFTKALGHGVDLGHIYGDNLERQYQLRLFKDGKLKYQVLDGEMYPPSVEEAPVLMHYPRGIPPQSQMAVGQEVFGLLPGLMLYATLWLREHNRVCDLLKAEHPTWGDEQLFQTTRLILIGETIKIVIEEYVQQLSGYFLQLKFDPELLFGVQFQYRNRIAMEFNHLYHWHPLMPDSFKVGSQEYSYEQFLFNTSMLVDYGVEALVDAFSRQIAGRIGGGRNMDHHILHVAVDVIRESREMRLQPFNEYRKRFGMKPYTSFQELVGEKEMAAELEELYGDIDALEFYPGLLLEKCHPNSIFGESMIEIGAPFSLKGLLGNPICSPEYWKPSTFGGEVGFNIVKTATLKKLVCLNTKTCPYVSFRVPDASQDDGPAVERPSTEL
Protocol: The COX-1 inhibitory activity of representative compounds of the invention was determined according to previously reported methods. COX-1 activity was assessed in human platelets using 100 µM arachidonic acid as a substrate and preincubation and incubation times of 15 min at 37 °C in HBSS, 15 mM HEPES pH 7.4 . The quantification method used was enzyme immunoassay determination of PGE2 (Chan, C.C. et al. J Pharmacol Exp Ther, 1999, 290, 551-560; Swinney, D.C. et al. J Biol Chem, 1997, 272, 12393-12398; Warner, T.D. et al. Proc Natl Acad Sci U S A, 1999, 96, 7563-7568; Riendeau, D. et al. Can J Physiol Pharmacol, 1997, 75, 1088-1095). COX-2 inhibitory activity was determined in human recombinant insect Sf21 cells according to references (Warner, T.D. et al., Proc Natl Acad Sci, USA. 1999;96(13):7563-7568; Riendeau, D. et al., Can J Physiol Pharmacol, 1997 ;75(9):1088-1095). Briefly, the COX-2 inhibitory activity was assessed on human recombinant insect Sf21 cells using 0.3 µM arachidonic acid as a substrate and preincubation and incubation times of 15 and 5 min, respectively, at 37 °C in 100 mM Tris-HCl, pH 7.7. The quantification method used was enzyme immunoassay determination of PGE2. Table 11. Inhibition of COX-1 and COX-2 at 10 µM

[3] = EGFR, at 10 µM, read-out: % Inhibition

Compound | logDoctanol/water [1] | inhibition at 10 µM (EGFR; [3]) [%] | inhibition at 10 µM (Akt3 (PRKBG); Akt3 (PRKBG), at 10 µM, read-out: % Inhibition) [%] | inhibition at 10 µM ([2]; CDK2, at 10 µM, read-out: % Inhibition) [%] | IC50 (tumor brain U-87 MG) [µM] | IC50 (tumor breast MCF-7; tumor breast MCF-7, read-out: IC50) [µM] | IC50 (tumor breast MDA-MB-231; tumor breast MDA-MB-231, read-out: IC50) [µM] | IC50 (tumor breast T-47D; tumor breast T-47D, read-out: IC50) [µM] | IC50 (tumor colon HCT-116) [µM] | IC50 (tumor liver Hep 3B; tumor liver Hep 3B, read-out: IC50) [µM] | IC50 (tumor ovary OVCAR-3) [µM] | inhibition at 10 µM (COX-1; at 10 µM, human platelets) [%] | inhibition at 10 µM (EGFR) [%] | inhibition at 10 µM (Akt3 (PRKBG)) [%] | inhibition at 10 µM [2] [%] | IC50 (tumor breast MCF-7) [µM] | IC50 (tumor breast MDA-MB-231; MDA-MB-231) [µM] | IC50 (tumor breast T-47D) [µM] | IC50 (tumor liver Hep 3B) [µM] | inhibition at 10 µM (COX-1) [%]
C=CCc1ccc(O)c(-c2cc(CC=C)ccc2OC(CCNC)c2ccccc2)c1.Cl (stereo not drawn) [Example 1, 5,5'-Diallyl-2'-[3-(methylamino)-1-phenylpropoxy]biphenyl-2-ol hydrochloride] | 1.31 | 72 | 99 | 92 | 2 | 1.6 | 3.3 | 13 | 4.3 | 5.6 | 4.6 | 81 | – | – | – | – | – | – | – | –
C=CCc1ccc(O)c(-c2ccc(OC(CCNC)c3ccccc3)c(CC=C)c2)c1 (stereo not drawn) [Example 5, 3',5-Diallvl-4'-13-(methylamino)-1-phenylpropoxy]biphenyl-2-ol hydrochloride] | 0.85 | – | – | – | – | – | – | – | – | – | – | – | 99 | 101 | 98 | 4.5 | 2.1 | 1.6 | 1.9 | 75
C=CCc1ccc(O)c(-c2ccc(O)c(CC=C)c2)c1 [Honokiol, reference compound] | 5.25 | 7 | – | – | 56 | – | – | – | 17 | – | 38 | 0 | – | – | – | – | – | – | – | –
